Experimental data taken from patent US4205163A, “Tylosin derivatives” (Sanraku-Ocean Co., Ltd., priority 1977, dated 1980).
Converted amounts (≈) assume the structure as drawn. Where two headings read alike, the source gives them in different places.

How the values were obtained:
[1] = tested on: Bacillus cereus ATCC 9634; assay: antimicrobial activity, broth dilution method; type: cell-based; conditions: Bacillus cereus
Outline: (§1)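 The S. aureus and S. pyogenes strains are multidrug-resistant clinical isolates, and both are tylosin-resistant. Susceptibility was determined by the broth dilution technique.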

[2] = tested on: Staphylococcus aureus MS-8710; assay: antimicrobial activity, broth dilution method; type: cell-based; conditions: Staphylococcus aureus
Outline: as §1

[3] = tested on: Streptococcus pyogenes MH-771; assay: antimicrobial activity, broth dilution method; type: cell-based; conditions: Streptococcus pyogenes
Outline: as §1

[4] = tested on: Staphylococcus aureus MS-9931; assay: antimicrobial activity, broth dilution method; type: cell-based
Outline: as §1

[5] = tested on: Sarcina lutea ATCC 9341; assay: antimicrobial activity, broth dilution method; type: cell-based; conditions: Micrococcus luteus, ATCC9341, Sarcina lutea ATCC 9341, read-out: minimum inhibitory concentration (MIC)
Outline: as §1

[6] = tested on: Staphylococcus aureus MS-9937; assay: antimicrobial activity, broth dilution method; type: cell-based
Outline: as §1

[7] = tested on: Staphylococcus aureus FDA-209P; assay: antimicrobial activity, broth dilution method; type: cell-based; conditions: Staphylococcus aureus, FDA209P, read-out: minimum inhibitory concentration (MIC)
Outline: (§2)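 Broth dilution MICs were measured against pathogenic bacteria, including clinically isolated drug-resistant strains. Staphylococcus aureus MS-8710 is resistant to tylosin, penicillin, tetracycline, erythromycin and leucomycin, and Streptococcus pyogenes to tylosin, erythromycin, oleandomycin and leucomycin.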

[8] = tested on: Staphylococcus aureus SMITH; assay: antimicrobial activity, broth dilution method; type: cell-based; conditions: Staphylococcus aureus, read-out: minimum inhibitory concentration (MIC)
Outline: as §2

[9] = tested on: Mycoplasma gallisepticum A-72; assay: antibacterial activity against Mycoplasma; type: cell-based; conditions: Mycoplasmoides gallisepticum, A72; strain A-72, macrolide resistant; Eiken PPLO Medium
From the text: (§3) Furthermore the new antibiotics according to the present invention also show antimicrobial activity on Mycoplasma. In particular, it is noteworthy that they have much higher antimicrobial activity than tylosin on Mycoplasma that is resistant to macrolide antibiotics. Tab.
(§4) *Macrolide resistant strain
(§5) **Medium (Eiken PPLO Medium)

[10] = tested on: Mycoplasma gallisepticum E-5; assay: antibacterial activity against Mycoplasma; type: cell-based; conditions: Mycoplasmoides gallisepticum, E5
From the text: as §3, §4, §5

[11] = tested on: Mycoplasma gallisepticum E-11; assay: antibacterial activity against Mycoplasma; type: cell-based; conditions: Mycoplasmoides gallisepticum, E11
From the text: as §3, §4, §5

[12] = tested on: Mycoplasma gallisepticum KP-13; assay: antibacterial activity against Mycoplasma; type: cell-based; conditions: Mycoplasmoides gallisepticum, KP13
From the text: as §3, §5

[13] = in vivo; conditions: mouse, po, 100 mg/kg
Description: The new antibiotics according to the present invention were each orally administered to mice at a dose of 100 mg/kg. Each blood level was then measured and compared with those of tylosin and 3-acetyltylosin.

[14] = toxicity in chickens, mixed with feed for a month; type: in vivo; conditions: mixed with feed at 0.3%
From the text: 3-Acetyl-4"-D-(α-hydroxyphenylacetyl)tylosin, 4"-phenylthioacetyltylosin and 4"-benzenesulfonylacetyltylosin, selected as the representative compounds according to the present invention, were mixed with feed at a ratio of 0.3%, respectively and given to chickens for a month.

[15] = ATCC9634, Bacillus cereus ATCC 9634, broth dilution, read-out: minimum inhibitory concentration (MIC)
[16] = MS8710, Staphylococcus aureus MS-8710, drug-resistant clinical isolate, read-out: minimum inhibitory concentration (MIC)
[17] = MH771, Streptococcus pyogenes MH-771, drug-resistant clinical isolate, read-out: minimum inhibitory concentration (MIC)
[18] = MS9931, Staphylococcus aureus MS-9931, drug-resistant clinical isolate, read-out: minimum inhibitory concentration (MIC)
[19] = MS9937, Staphylococcus aureus MS-9937, drug-resistant clinical isolate, read-out: minimum inhibitory concentration (MIC)
[20] = Staphylococcus aureus FDA-209P, broth dilution
[21] = Staphylococcus aureus SMITH, broth dilution
[22] = strain KP-13, Eiken PPLO Medium, read-out: MIC
[23] = strain E-5, macrolide resistant, Eiken PPLO Medium, read-out: MIC
[24] = strain E-11, macrolide resistant, Eiken PPLO Medium, read-out: MIC

| SMILES | MIC [1, 15] [µg/mL] | MIC [2, 16] [µg/mL] | MIC [3, 17] [µg/mL] | MIC [4, 18] [µg/mL] | MIC [5] [µg/mL] | MIC [6, 19] [µg/mL] | MIC [7, 20] [µg/mL] | MIC [8, 21] [µg/mL] | MIC [9] [µg/mL] | MIC [10] [µg/mL] | MIC [12, 22] [µg/mL] | MIC [10, 23] [µg/mL] | MIC [11, 24] [µg/mL] | also measured |
| --- | --- | --- | --- | --- | --- | --- | --- | --- | --- | --- | --- | --- | --- | --- |
| CCC1OC(=O)CC(O)C(C)C(OC2OC(C)C(OC3CC(C)(O)C(OC(=O)CSC4CCCCC4)C(C)O3)C(N(C)C)C2O)C(CC=O)CC(C)C(=O)C=CC(C)=CC1COC1OC(C)C(O)C(OC)C1OC (centres unmarked) [Compound 40, 4"-cyclohexylthioacetyltylosin] | 0.78 (≈ 0.727 µM) | 12.5 (≈ 11.7 µM) | 6.25 (≈ 5.83 µM) | 12.5 (≈ 11.7 µM) | 0.39 (≈ 0.364 µM) | 25 (≈ 23.3 µM) | 0.78 (≈ 0.727 µM) | 0.78 (≈ 0.727 µM) | 0.157 (≈ 0.146 µM) | 0.157 (≈ 0.146 µM) | 0.078 (≈ 0.0727 µM) | – | – | MIC [11]: 0.157 µg/mL (≈ 0.146 µM) |
| CC[C@H]1OC(=O)C[C@@H](O)[C@H](C)[C@@H](O[C@@H]2O[C@H](C)[C@@H](O[C@H]3C[C@@](C)(O)[C@@H](O)[C@H](C)O3)[C@H](N(C)C)[C@H]2O)[C@@H](CC=O)C[C@@H](C)C(=O)/C=C/C(C)=C/[C@@H]1CO[C@@H]1O[C@H](C)[C@@H](O)[C@@H](OC)[C@H]1OC [tylosin] | – | – | – | – | 0.19 (≈ 0.207 µM) | – | – | – | 2.5 (≈ 2.73 µM) | 2.5 (≈ 2.73 µM) | – | – | – | MIC ([1]; ATCC9634, read-out: minimum inhibitory concentration (MIC)): 0.78 µg/mL (≈ 0.851 µM); MIC ([2]; MS8710, read-out: minimum inhibitory concentration (MIC)): > 200 µg/mL; MIC ([3]; MH771, read-out: minimum inhibitory concentration (MIC)): > 200 µg/mL; MIC ([4]; Staphylococcus aureus, MS9931, read-out: minimum inhibitory concentration (MIC)): 200 µg/mL (≈ 218 µM); MIC ([6]; Staphylococcus aureus, MS9937, read-out: minimum inhibitory concentration (MIC)): 100 µg/mL (≈ 109 µM); MIC [7]: 0.39 µg/mL (≈ 0.426 µM); MIC [8]: 0.39 µg/mL (≈ 0.426 µM); MIC [11]: 2.5 µg/mL (≈ 2.73 µM); Cmax [13]: ≤ 1000 ng/mL; MIC [12]: 0.019 µg/mL (≈ 0.0207 µM) |
| CCC1OC(=O)CC(OC(C)=O)C(C)C(OC2OC(C)C(OC3CC(C)(O)C(O)C(C)O3)C(N(C)C)C2O)C(CC=O)CC(C)C(=O)C=CC(C)=CC1COC1OC(C)C(O)C(OC)C1OC (centres unmarked) [3-acetyltylosin, reference compound] | 0.78 (≈ 0.814 µM) | 200 (≈ 209 µM) | 200 (≈ 209 µM) | 200 (≈ 209 µM) | 0.19 (≈ 0.198 µM) | 100 (≈ 104 µM) | 0.39 (≈ 0.407 µM) | 0.39 (≈ 0.407 µM) | – | – | – | – | – | Cmax [13]: 2000 to 5000 ng/mL |
| CCC1OC(=O)CC(O)C(C)C(OC2OC(C)C(OC3CC(C)(O)C(OC(=O)CSc4ccncc4)C(C)O3)C(N(C)C)C2O)C(CC=O)CC(C)C(=O)C=CC(C)=CC1COC1OC(C)C(O)C(OC)C1OC (centres unmarked) [Compound 41, 4"-(4-pyridyl)thioacetyltylosin] | 0.39 (≈ 0.365 µM) | 12.5 (≈ 11.7 µM) | 12.5 (≈ 11.7 µM) | 12.5 (≈ 11.7 µM) | 0.19 (≈ 0.178 µM) | 12.5 (≈ 11.7 µM) | 0.78 (≈ 0.731 µM) | 0.39 (≈ 0.365 µM) | 0.157 (≈ 0.147 µM) | – | 0.039 (≈ 0.0365 µM) | 0.313 (≈ 0.293 µM) | 0.313 (≈ 0.293 µM) | – |
| CCC1OC(=O)CC(O)C(C)C(OC2OC(C)C(OC3CC(C)(O)C(OC(=O)CCc4ccccc4)C(C)O3)C(N(C)C)C2O)C(CC=O)CC(C)C(=O)C=CC(C)=CC1COC1OC(C)C(O)C(OC)C1OC (stereo not drawn) [Compound 24, 4"-β-phenylpropionyltylosin] | 0.78 (≈ 0.744 µM) | 12.5 (≈ 11.9 µM) | 25 (≈ 23.8 µM) | 12.5 (≈ 11.9 µM) | 0.19 (≈ 0.181 µM) | 25 (≈ 23.8 µM) | 0.78 (≈ 0.744 µM) | 0.39 (≈ 0.372 µM) | 0.157 (≈ 0.15 µM) | – | 0.078 (≈ 0.0744 µM) | 0.313 (≈ 0.299 µM) | 0.313 (≈ 0.299 µM) | concentration at 1 h [13]: 12000 ng/mL; concentration at 3 h [13]: 2000 ng/mL |
| CCC1OC(=O)CC(O)C(C)C(OC2OC(C)C(OC3CC(C)(O)C(OC(=O)CCC4CCCCC4)C(C)O3)C(N(C)C)C2O)C(CC=O)CC(C)C(=O)C=CC(C)=CC1COC1OC(C)C(O)C(OC)C1OC (stereo not drawn) [Compound 29, 4"-β-cyclohexylpropionyl tylosin] | 0.78 (≈ 0.74 µM) | 12.5 (≈ 11.9 µM) | 6.25 (≈ 5.93 µM) | 12.5 (≈ 11.9 µM) | 0.39 (≈ 0.37 µM) | 12.5 (≈ 11.9 µM) | 0.78 (≈ 0.74 µM) | 0.78 (≈ 0.74 µM) | 0.313 (≈ 0.297 µM) | 0.313 (≈ 0.297 µM) | 0.039 (≈ 0.037 µM) | – | 0.625 (≈ 0.593 µM) | – |
| CCC1OC(=O)CC(OC(C)=O)C(C)C(OC2OC(C)C(OC3CC(C)(O)C(OC(=O)CSCc4ccccc4)C(C)O3)C(N(C)C)C2O)C(CC=O)CC(C)C(=O)C=CC(C)=CC1COC1OC(C)C(O)C(OC)C1OC (centres unmarked) [Compound 38, 3-acetyl-4"-benzylthioacetyltylosin] | 1.56 (≈ 1.39 µM) | 12.5 (≈ 11.1 µM) | 6.25 (≈ 5.57 µM) | 12.5 (≈ 11.1 µM) | 0.39 (≈ 0.347 µM) | 12.5 (≈ 11.1 µM) | 0.78 (≈ 0.695 µM) | 0.78 (≈ 0.695 µM) | 0.078 (≈ 0.0695 µM) | – | 0.019 (≈ 0.0169 µM) | 0.078 (≈ 0.0695 µM) | 0.078 (≈ 0.0695 µM) | – |
| CCC1OC(=O)CC(O)C(C)C(OC2OC(C)C(OC3CC(C)(O)C(OC(=O)CSc4ccccc4)C(C)O3)C(N(C)C)C2O)C(CC=O)CC(C)C(=O)C=CC(C)=CC1COC1OC(C)C(O)C(OC)C1OC (centres unmarked) [Compound 34, 4"-phenylthioacetyltylosin] | 0.39 (≈ 0.366 µM) | 6.25 (≈ 5.86 µM) | 6.25 (≈ 5.86 µM) | 12.5 (≈ 11.7 µM) | 0.19 (≈ 0.178 µM) | 12.5 (≈ 11.7 µM) | 0.39 (≈ 0.366 µM) | 0.39 (≈ 0.366 µM) | 0.078 (≈ 0.0731 µM) | – | 0.019 (≈ 0.0178 µM) | 0.078 (≈ 0.0731 µM) | 0.078 (≈ 0.0731 µM) | toxicity [14]: No toxicity was observed |
| CCC1OC(=O)CC(O)C(C)C(OC2OC(C)C(OC3CC(C)(O)C(OC(=O)CS(=O)(=O)c4ccccc4)C(C)O3)C(N(C)C)C2O)C(CC=O)CC(C)C(=O)C=CC(C)=CC1COC1OC(C)C(O)C(OC)C1OC (centres unmarked) [Compound 43, 4"-benzenesulfonylacetyltylosin] | 0.78 (≈ 0.71 µM) | 6.25 (≈ 5.69 µM) | 3.13 (≈ 2.85 µM) | 6.25 (≈ 5.69 µM) | 0.39 (≈ 0.355 µM) | 6.25 (≈ 5.69 µM) | 0.78 (≈ 0.71 µM) | 0.78 (≈ 0.71 µM) | 0.039 (≈ 0.0355 µM) | – | 0.019 (≈ 0.0173 µM) | 0.078 (≈ 0.071 µM) | 0.078 (≈ 0.071 µM) | toxicity [14]: No toxicity was observed |
| CCC1OC(=O)CC(OC(C)=O)C(C)C(OC2OC(C)C(OC3CC(C)(O)C(OC(=O)CN(C(C)=O)c4ccccc4)C(C)O3)C(N(C)C)C2O)C(CC=O)CC(C)C(=O)C=CC(C)=CC1COC1OC(C)C(O)C(OC)C1OC (centres unmarked) [Compound 32, 3-acetyl-4"-(N-acetylanilino)acetyltylosin] | 0.78 (≈ 0.688 µM) | 12.5 (≈ 11 µM) | 12.5 (≈ 11 µM) | 25 (≈ 22.1 µM) | 0.39 (≈ 0.344 µM) | 25 (≈ 22.1 µM) | 0.78 (≈ 0.688 µM) | 0.78 (≈ 0.688 µM) | 0.157 (≈ 0.139 µM) | – | – | 0.313 (≈ 0.276 µM) | 0.313 (≈ 0.276 µM) | MIC [12]: 0.157 µg/mL (≈ 0.139 µM) |
